{
  "source": "patent US20240424019A1",
  "about": "“SHP1 MODIFIED DENDRITIC CELLS AND EXTRACELLULAR VESICLES DERIVED THEREFROM AND ASSOCIATED METHODS” (BOARD OF REGENTS, THE UNIVERSITY OF TEXAS SYSTEM, priority 2021, published 2024)",
  "key": {"human iPSC-DCs": {"system": "human iPSC-DCs", "test": "Activation of human iPSC-derived DCs by flow cytometry", "assay_type": "cell-based", "conditions": "vitamin E 50 μg/ml or TPI-1 1 μg/ml, 72 h, gated on CD11c+", "from_the_text": "FIG. 10A: Representative high magnification photomicrographs (100×, 200×, 400×) illustrating the morphology of colonies and individual cells of fully differentiated iPSC-derived DCs (iPSC-DCs) displaying characteristic DC morphology consisting of protrusions and veils of cytoplasm at the end of the differentiation procedure (day 23) after using the differentiation protocol for the addition and withdrawal of growth factors and cytokines. FIG. 10B: Phenotypic characterization of generated human iPSC-DCs. Representative flow cytometry analysis depicting the expression of DC lineage markers by iPSC-DCs gated on the CD11c+ population. Levels of expression of individual markers are shown as red histograms, while non-specific staining by isotype controls is shown as light blue histograms. FIG. 10C: Phenotypic characterization of human iPSC-DCs after treatment with vitamin E or TPI-1 to inhibit SHP1. Representative flow cytometry analysis (left panel) and quantification (right panel) depicting the expression of indicated activity markers by iPSC-DCs gated on the CD11c+population with the treatment of vehicle, vitamin E (50 μg/ml) or TPI-1 (1 μg/ml) for 72 h.\nWe explored the feasibility of differentiating populations of primary DCs from iPSCs and characterized the phenotype of iPSC-DC with the pharmacological inhibition of SHP1 by vitamin E or TPI-1. […]"}, "CD8+ OT-1 T cells": {"system": "CD8+ OT-1 T cells", "test": "DC-EV in vitro assays (H-2Kb-SIINFEKL on EVs, binding to CD8+ T cells, OT-1 proliferation, IFN-γ ELISA)", "assay_type": "cell-based, mouse", "conditions": "EVs of OVA-loaded BMDCs treated with VitE vs vehicle", "experimental": "To generate DC-EVs, BMDCs or DC2.4 were cultured at a density of 2×10^6 cells/ml and treated with LPS (100 ng/ml) for 18 h and then treated with OVA protein (250 μg/ml) for 24 hours in DCs culture media supplemented with 10% exosome depleted FBS, which is prepared by the first ultracentrifugation at 100,000 g for 16 h, and then filtering using a 100 nm filter. Supernatants were collected from 48-72 h DCs cultures and EVs were purified by a standard differential ultracentrifugation. […] The purified exosomes were then analyzed and used for experimental procedures. […]\nFor FACS analysis, exosomes were conjugated with 4 μm aldehyde/sulfate latex beads (Cat. A37304, Thermo Fisher) by overnight incubation. The EVs-bound beads were incubated with glycine to block remaining binding sites and surface expression of SIINFEKL-loaded MHC-I complexes on DC-EVs was determined by staining with anti-mouse H-2K^b bound to SIINFEKL antibody. […]\nTo verify the physical interactions between DC-EVs and CD8^+ T cells, purified DC-EVs were stained with DiO (Cat. V22889, Thermo Fisher) in 100 μl PBS, and then washed with 10 ml PBS and pelleted by ultracentrifugation. For cell treatment, DC-EVs (10 μg/ml) (unless specified otherwise) were used on the basis of protein concentration determined by a BCA Protein Assay Kit (Pierce). […] After 72 h, the T-cell proliferation was analyzed by FACS. […]"}},
  "data": [
    {"smiles": "Cc1c(C)c2c(c(C)c1O)CC[C@@](C)(CCC[C@H](C)CCC[C@H](C)CCCC(C)C)O2", "note": "[VitE, D-α-Tocopherol]", "values": [
      {"measurement": "expression of DC activation markers on iPSC-DCs", "setting": "human iPSC-DCs", "value": "increased expression of DC activation markers CD40 and CD86"},
      {"measurement": "level of H-2Kb-SIINFEKL complexes on DC-EVs", "setting": "CD8+ OT-1 T cells", "value": "increased the level of H-2Kb-SIINFEKL complexes on DC-EVs"}
    ]}
  ]
}
